Results reported in patent US20260125426A1, “CYCLIC CELL-PENETRATING PEPTIDES AND USES THEREOF” (Ohio State Innovation Foundation, priority 2022, published 2026).
Several values for one entry are separate records, joined by “and”; a condition that tells them apart may be missing. Equal entries are not always repeated.

What was measured:
HeLa cells [1] = experiment: Live-cell confocal microscopy of HeLa cells; assay type: cell-based
Protocol: Confocal microscopy. HeLa cells (5×10^5 cells/mL in 300 μL volume) were cultured overnight in DMEM (10% FBS, 1% antibiotic solution) in a Grenier Bio-One 35/10 mm glass-bottomed microwell dish with four compartments. The following day, cells were incubated with 5 μM fluorescently labeled peptide for 2 h in phenol-red free DMEM (1% FBS, 1% antibiotic solution) and washed with warm media prior to imaging. Cells were imaged on a Nikon A1R live-cell confocal laser scanning microscope (ECLIPSE Ti-E automated, inverted) equipped with a 100× oil objective (1.45 N.A.) and a heated chamber (37° C.) supplied with 5% CO2. TMR-labeled peptides were imaged by excitation with a λEx of 561 nm. Differential interference contrast (DIC) images were obtained to validate the morphology of cells.
The cellular entry of BCP1-3 was further confirmed by live-cell confocal microscopy. HeLa cells were incubated with 5 μM TMR-labeled peptide for 2 h in the presence of 1% FBS in media. The cells were washed twice with fresh media and imaged without fixation.
To assess cellular delivery by confocal microscopy, HeLa cells were cultured overnight in a 4-well, 35-mm glass bottom microscope dish at a density of 50,000 cells/mL (300 μL per well). The following day, the cells were washed twice with DPBS and incubated with 5 μM protein for 4 h in phenol red free DMEM with 1% FBS. […]

HEK293T cells = experiment: Cytotoxicity, Promega CellTiter-Glo 2.0 assay, HEK293T; assay type: cell-based; settings: 72 h, read-out: IC50 (concentration at which 50% of cells are nonviable)
Protocol: (§1) Cytotoxicity of BCPs. The cytotoxicity of pBCP427-4 and BCP16 was tested 20) against HeLa and HEK293T cell lines by using Promega's Cell-Glo assay. The cells were seeded in a 96-well plate (5000 cells/well) in 100 μL of DMEM supplemented with 10% FBS and 1% penicillin/streptomycin. The following day. 10 μL of peptide of various concentrations was added to the cells. A row of wells was treated with DMSO as a control. After 72 h, all wells were treated with an equal volume (110 μL) of Promega CellTiter-Glo 2.0 assay solution and shaken for 30 min. Luminescent signal was measured on a Tecan Infinite Pro plate reader.

HeLa cells [2] = experiment: Cytotoxicity, Promega CellTiter-Glo 2.0 assay, HeLa; assay type: cell-based; settings: 72 h, read-out: IC50 (concentration at which 50% of cells are nonviable)
Protocol: as §1

HeLa cells [3] = experiment: Flow cytometry of HeLa cells, cytosolic entry of NF-labeled peptides; assay type: cell-based; settings: for MFI^NF (Cytosolic Entry): 1% FBS, relative to CPP12 (100%)
Protocol: Flow cytometry. HeLa cells were cultured in 12-well plates (1.5×10^5 cells/well) overnight. The following day, cells were incubated with 5 μM fluorescently labeled peptide for 2 h in DMEM supplemented with 1% FBS and 1% antibiotic solution. DMSO was used as a negative control. After incubation, cells were detached from plate with 350 μL of 0.25% Trypsin-EDTA solution, diluted with Dulbecco's phosphate buffered saline (DPBS), and pelleted at 300 g for 5 min. Cells were washed twice with DPBS, resuspended in DPBS, and analyzed on a BD FACS LSR II flow cytometer.
To evaluate their cell entry efficiencies, the BCPs and pBCPs were labeled with tetramethylrhodamine (TMR) or naphthofluorescein (NF) on a C-terminal lysine residue (FIGS. 2A, 2B, and 4). […] The labeled peptides were purified again by reversed-phase HPLC and their authenticity was confirmed by high-resolution mass spectrometry.
HeLa cells were treated with 5 μM dye-labeled BCPs (or pBCPs), CPP12, Tat, or DMSO (equal volume) for 2 h at 37° C., washed to remove any peptides in the medium, and analyzed by flow cytometry. The mean fluorescence intensity (MFI) value of TMR (which is pH insensitive) reflects the total amount of CPP inside the HeLa cells (total cellular uptake). On the other hand, NF is a pH sensitive dye, having an apparent pKa of 7.8. NF is unprotonated and fluorescent inside the neutral environment of the cytosol (and nucleus) but is nearly completely protonated and nonfluorescent in the acidic environments of endosomes and lysosomes. Thus, the MFI value of NF provides a convenient estimate of the peptides that have reached the cytosol.
Note that cell entry assays were performed by treating HeLa cell with 2 μM naphthofluorescein (NF)-labeled peptide for 2 h at 37° C. Under this condition, the BCPs enter the cell almost exclusively by endocytosis and endosomal escape. A small fraction of the CPP12^NF-treated cells (˜10%) underwent direct translocation of CPP12^NF; this fraction of highly fluorescent cells was not included in the data analysis. The cellular entry of pBCP427-4 was confirmed by live-cell confocal microscopy (FIG. 6).
BCP16a, BCP16b, and pBCP427-4a were labeled with NF and their cytosolic entry efficiencies were assessed by flow cytometry analysis of HeLa cells after treatment with 2 μM peptide at 37° C. for 2 h. […] CPP12 was previously shown to be highly sensitive to serum proteins (Buyanova, M., et al., (2022). Discovery of a Cyclic Cell-Penetrating Peptide with Improved Endosomal Escape and Cytosolic Delivery Efficiency. Molecular pharmaceuties, 19 (5). 1378-1388).

Keap1 = Keap1 (Homo sapiens, UniProt Q14145); settings: read-out: KD for Keap1; cited from earlier work
Keap1, sequence (Q14145 whole entry, species assumed): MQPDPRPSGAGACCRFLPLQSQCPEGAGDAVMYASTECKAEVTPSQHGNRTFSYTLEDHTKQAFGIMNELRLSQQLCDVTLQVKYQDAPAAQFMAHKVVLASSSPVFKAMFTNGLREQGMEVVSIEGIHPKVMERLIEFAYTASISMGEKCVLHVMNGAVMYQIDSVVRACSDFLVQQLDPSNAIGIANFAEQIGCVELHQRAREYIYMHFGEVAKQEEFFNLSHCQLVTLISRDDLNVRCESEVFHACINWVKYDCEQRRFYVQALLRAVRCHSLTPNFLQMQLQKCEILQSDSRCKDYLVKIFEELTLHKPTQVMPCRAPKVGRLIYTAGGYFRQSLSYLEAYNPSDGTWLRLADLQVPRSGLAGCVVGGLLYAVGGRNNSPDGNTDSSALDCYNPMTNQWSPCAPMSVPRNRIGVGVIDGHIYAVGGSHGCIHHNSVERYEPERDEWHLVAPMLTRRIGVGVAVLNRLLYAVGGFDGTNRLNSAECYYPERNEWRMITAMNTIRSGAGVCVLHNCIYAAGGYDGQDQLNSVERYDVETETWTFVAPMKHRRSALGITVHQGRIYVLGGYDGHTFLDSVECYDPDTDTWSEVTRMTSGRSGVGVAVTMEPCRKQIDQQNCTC

[4] = system: intracellular Keap1-Nrf2 interaction; experiment: ARE reporter-HepG2 luciferase assay of CPP/BCP-K1 conjugates; assay type: cell-based; settings: ARE-Reporter HepG2 cells, 10 μM peptide, 18 h
Protocol: Cytosolic Delivery of Peptidyl Cargo. […] An important role of Nrf2-ARE pathway in the cellular defense mechanism. Journal of biochemistry and molecular biology, 37(2), 139-1438). Under basal conditions, Nrf2 interacts with Keap1 and is retained in the cytosol or degraded by the proteasome. However, upon blocking the Keap1-Nrf2 interaction, Nrf2 accumulates and translocates into the nucleus, inducing the expression of luciferase.
One hundred μL of ARE-Reporter Hep G2 cells were seeded in a 96-well plate at 5000 cells/well in minimum essential media supplemented with 10% FBS and 1% penicillin/streptomycin. The following day, 10 μL of peptide of various concentrations was added to the cells to give final concentrations of 0.625-10 μM. Cells treated with DMSO were used as a control. After 18 h, the cells were treated with an equal volume (110 μL) of BPS bioscience ONE-Step luciferase assay solution and shaken for 30 min. The luminescent signal was measured on a Tecan Infinite Pro plate reader.

[5] = Proteolytic stability in 25% human serum (UPLC-MS); assay type: in vitro ADME; settings: 100 μM peptide, 25% human serum in PBS, 37° C.; read-out: Serum t1/2
Protocol: Proteolytic Stability of BCP4, BCP16, and pBCP427-4. BCPs (100 μM) were incubated in 25% human serum diluted in phosphate-buffered saline for 24 h at 37° C. One hundred-μL aliquots were withdrawn from the mixture at various time points and mixed with 200 μL of 1:1 (v/v) 15% trichloroacetic acid in methanol and acetonitrile. The samples were centrifuged for 5 min in a microcentrifuge and stored at 4° C. until analysis by UPLC-MS equipped with a C-18 column. The column was eluted with a linear gradient of 5-100% acetonitrile in water containing 0.1% TFA over 7.5 min and the eluant was monitored at 214 nm. The area underneath the peak for any remaining BCP was integrated and compared to that at time 0 and the percentage of remaining BCP was plotted as a function of the incubation time. When integration of the UV absorbance was not possible due to overlapping of the peptide signal with that of serum proteins, the signal abundance from the mass spectrum was used to estimate the % peptide remaining.
Proteolytic Stability of pBCP427-4 and pBCP427-4Ala. BCPs (100 μM) were incubated in 25% human serum diluted in phosphate-buffered saline for 24 h at 37° C. […] The column was eluted with a linear gradient of 5-100% acetonitrile in water containing 0.1% TFA over 7.5 min and the eluant was monitored at 214 nm.

NIH 3T3 cells = experiment: Confocal microscopy of NIH 3T3 cells; assay type: cell-based; settings: 2 μM peptide, 37° C., 2 h
Protocol: The cytosolic entry efficiencies of CPP12, BCP16a, BCP16b, and pBCP427-4a were also assessed by confocal microscopy of NIH 3T3 cells after treatment with 2 μM peptide at 37° C. for 2 h.

[6] = 2 μM NF-labeled peptide, 2 h, 37° C.

In the case of CWSNWFCFQRRC [pBCP427-4], the “cellular entry seen by live-cell confocal microscopy” value (HeLa cells [1]; 2 or 5 μM TMR-labeled peptide, 2 h, 37° C.) is reported as “confirmed”, the IC50 (HEK293T cells) is reported as 16 µM and the IC50 (HeLa cells [2]) is reported as greater than 50 µM. For the same molecule, the “MFI^NF (Cytosolic Entry)” value (HeLa cells [3]; [6]) was 189% and 189 ± 6% and the “improvement of cytosolic entry efficiency by bismuth cyclization” value (HeLa cells [3]; 2 μM, pBCP427-4 vs pBCP427-4Ala) was roughly 10 fold.

In the case of cyclo(GQLDPETGEFL [K1], the Kd (Keap1) is given as 0.018 µM and the “induction of luminescence signal” value [4] is given as “did not”.

Work on HS-CH2-CO-rRrRCΦ(Bta)φC [BCP16] yielded an IC50 (HEK293T cells) of 14 µM and an IC50 (HeLa cells [2]) of 49 µM.

In the case of “pBCP427-4-SEP: fusion protein of pBCP427-4 at the N-terminus of superecliptic-pHluorin (SEQ ID NO: 89) (MGSSGSSCWSNWFCFQRRC)”, the “GFP fluorescence inside the cell (protein delivery)” value (HeLa cells [1]; 5 μM protein, 4 h, 1% FBS) is reported as “intense GFP fluorescence inside the cell”.

`CC(=O)N[C@@H](Cc1ccc(O)cc1)C(=O)NCC(=O)N[C@@H](CCCNC(=N)N)C(=O)N[C@@H](CCCCN)C(=O)N[C@@H](CCCCN)C(=O)N[C@@H](CCCNC(=N)N)C(=O)N[C@@H](CCCNC(=N)N)C(=O)N[C@@H](CCC(N)=O)C(=O)N[C@@H](CCCNC(=N)N)C(=O)N[C@@H](CCCNC(=N)N)C(=O)N[C@@H](CCCNC(=N)N)C(=O)NCCOCCOCC(=O)N[C@@H](CCCCNC(=O)c1ccc2c(c1)C(=O)OC21c2ccc3cc(O)ccc3c2Oc2c1ccc1cc(O)ccc21)C(N)=O` [Tat] gave a half-life at 100 μM [5] of less than 30 min.

In the case of Ac-cwsnwfcfqrrc [pBCP427-4a], the “cytosolic entry by fluorescence intensity, compared with CPP12” value (NIH 3T3 cells) is reported as “less active than CPP12”, the “MFI^NF (Cytosolic Entry)” value (HeLa cells [3]; [6]) is reported as 33% and 33 ± 1% and the “cytosolic entry efficiency in the presence of 10% FBS” value (HeLa cells [3]; 2 μM NF-labeled peptide, 2 h, 37° C., 10% FBS, relative to CPP12) is reported as 85%.
